Reference: publication PMC7566913, “Dual Gene Delivery Reagents From Antiproliferative Alkylphospholipids for Combined Antitumor Therapy” (Frontiers in Chemistry, 2020)
Where “and” joins values, the source holds several entries; their conditions need not be identical. Identical values can stand only once. Like-named read-outs stand apart in the source and are kept apart here.

What was measured:
[1] = test system: red blood cells (RBC); details: cited from earlier work
[2] = test system: A549 cells; test: Cytotoxicity, MTT assay, A549; format: cell-based, human; details: A549, 24 h at 37°C
Protocol: (§1) The cells were exposed for a 24-h period to increasing concentration of the pro-APLs, ranging from 500 nM to 1 mM, and cell viability was assessed using the MTT colorimetric assay (Mosmann, [1983]). For the three cell lines, viability decreased in a dose-dependent manner in response to APLs and pro-APLs (Supplementary Figures 2–4). Using the best-fit regression curve method, the IC50 value (concentration that provokes 50% inhibition of the cell growth) was calculated for each compound (Table 4). The three cell lines responded to the compounds with varying sensitivities. […] This is attributed to enzyme-mediated hydrolysis of the pro-APL compounds in the complemented culture medium or in the intracellular compartment, competing with pure pH-controlled chemical hydrolysis. According to its structure, a pro-APL may or not be a substrate for specific lipases and, thus, may or not be hydrolyzed into the parent cytotoxic compound. […]
(§2) At confluency, cells were released […]
(§3) Cells were seeded into 96-well plates (Becton-Dickinson) at the required density (vide supra) in 100 µL of serum containing culture medium. […]
(§4) Mitochondrial activity measurements (MTT assay) was used to assess cytotoxicity of the compounds.
(§5) Lipid samples were prepared from a lipid film (3.6 µmol of compound evaporated from an ethanolic solution) hydrated with aqueous glucose 5 % and vigorously vortexed for 20 s before serial dilution in aqueous glucose 5 %. For addition of lipid samples to cell culture, part of the culture medium in the culture plates prepared the day before (25 µL) was removed and replaced by lipid samples (25 µL). Negative control was obtained by adding glucose 5 % to the cells instead of lipoplexes.
(§6) After a 24-h incubation period at 37 °C, culture supernatant was removed, cells were carefully washed with PBS and MTT (100 µL, 0.5 mg/mL) in complete culture medium was added. After a 1-h incubation period at 37 °C, the MTT sol ution was removed and DMSO (100 µL) was added to lyse cells and dissolve reduced MTT. Intensity of MTT reduction was then evaluated by measuring absorbance at 492 nm. Viability of cells treated with lipids or lipoplexes was expressed as the percentage of the absorbance measured in untreated cells. Value for each sample is the mean of triplicate determinations (± SD). IC50 values were determined within the 95 % confidence interval using nonlinear regression analysis with the GraphPad Prism software (GraphPad Software, San […]
(§7) All data are representative of a triplicate determination and are presented as the mean ± SD.
(§8) Statistical significance between treatments was assessed by one-way analysis of variance (ANOVA) followed by the Dunnett multiple comparison test, using the Kaleidagraph 4.5 software (Synergy Software, Reading, PA, USA). Data were considered as statistically significant for p value less than

[3] = Langmuir trough method, cited from earlier work
[4] = test system: 16HBE cells; test: Cytotoxicity, MTT assay, 16HBE; format: cell-based, human; details: 24 h at 37°C
Protocol: as §1, §2, §3, §4, §5, §6, §7, §8

[5] = set-up: method as in Yaseen et al., 2005; details: Du Noüy ring method; ref Yaseen et al., 2005; cited from earlier work
[6] = test system: sheep RBC; test: Hemolytic activity, red blood cell leakage assay; details: 37°C
Protocol: To evaluate this hypothesis, the hemolytic activity of the APLs and pro-APLs was measured. Sheep RBC were incubated for 1 h with escalating doses of aqueous dispersion of the compounds at 37°C. At the end of the incubation period, hemoglobin leakage was determined spectrophotometrically.
Thus, in order to better characterize the hemolytic effect of the pro-APLs, the incubation period has been extended and release of hemoglobin was measured after 24 h.
Red blood cell (RBC) leakage assay was carried out according to a previously described procedure
(Evans et al, 2013). RBC were prepared from defibrinated sheep blood. Briefly, blood sample (5 mL) was centrifuged at 500 x g for 5 min. After removal of the yellow upper layer, an equal volume of

[7] = CMC/CAC by pyrene fluorescent probe technique in ultrapure water; format: physicochemical; details: pyrene fluorescence
Protocol: The pro-APL molecules have been specifically engineered so they can be metabolized in situ under a biological stimulus to revert to the parent APL with antiproliferative activity. […] We thus aimed to determine the self-assembly properties of the APL prodrugs. […] Pyrene is a probe which fluorescence is sensitive to the polarity of the solubilizing medium. […] Fluorescence measurements were carried out in ultrapure water and data obtained for the various APLs and their prodrugs are shown in Table 2.
Pro-APLs Self-Assembly Properties
Starting from a lipid film, compounds were […]

[8] = test system: H292 cells; test: Cytotoxicity, MTT assay, H292; format: cell-based, human
Protocol: as §1, §2, §3, §4, §5, §6, §7, §8

[9] = Particle size and zeta potential of lipoplexes by DLS; format: physicochemical; details: lipoplexes with pCMV-Gluc, 25 °C, 5 % glucose, N/P 3, 1 molar equivalent of DOPE
From the text: The capacity of the pro-APLs to interact electrostatically with nucleic acids and form lipoplexes was checked by standard agarose gel electrophoresis. […] The size (hydrodynamic diameter) and charge (zeta potential, ζ) of the lipoplexes prepared at an N/P ratio of 3 with one molar equivalent of dioleoyl-sn-glycero-3-phosphatidylethanolamine (DOPE), a lipid with fusogenic properties (Hui et al., [1996]; Zuhorn et al., [2005]), were investigated by DLS (Supplementary Table 1).
as measured by DLS. Lipoplexes were prepared at 25 °C, in 5 % glucose, at a N/P ratio of 3 and with
1 molar equivalent of DOPE.
(Gaillard et al., 2019). Data are the mean of three independent measurements (± SD).

[10] = test system: A549 cells; test: Gene transfer efficiency, pCMV-Gluc luciferase reporter gene assay; format: cell-based, human
From the text: The efficacy of the pro-APLs to mediate intracellular delivery of a plasmid DNA was examined in A549 human lung epithelial carcinoma cells using the pCMV-Gluc reporter gene encoding the luciferase of Gaussia princeps. This luciferase is secreted by cells and transgene expression can be conveniently assessed by standard bioluminescence measurements on aliquots of the cell culture supernatant, without need for prior cell lysis. Lipoplexes were formulated in glucose 5% at N/P ratios of 1, 3, and 5, with increasing amounts of DOPE as a helper lipid. They were deposited onto cells in the presence of 10% serum and luciferase activity was measured after 24 h (Figure 3). […] The influence of the nature of the pendant hydrophobic arm was also examined.
To investigate the effect of serum on the gene delivery properties of the APL prodrugs, cells were treated with lipoplexes in the presence of an increasing concentration of serum (Figure 5). Two DNA doses were considered.
Figure 5 Transfection efficiency of pro-APLs ME12 (A), PE12 (B), and EE12 (C) as a function of serum content. Pro-APL/DNA complexes were prepared at N/P 3, with 1 molar eq. of DOPE. A549 cells (6,000 cells/well) were seeded into 96-well plates in 100 μL of culture medium containing 10% serum. Twenty-four hours later, cell supernatant was replaced with culture medium complemented with increasing amounts of serum (from 10 to 75%) just before adding the lipoplexes (0.2 and 0.4 μg of DNA per well; light and deep purple bars, resp.). Control (light blue bar) refers to basal bioluminescence measured in untreated cells. […] Statistical significance vs. control. ***p < 0.001, **p < 0.01, *p < 0.05.

[11] = Hydrolytic stability of the APL prodrugs monitored by 31P-NMR; format: physicochemical
From the text: Aqueous formulation of the APL prodrugs produces nanosized lipid aggregates that most likely enter cells through the endocytosis pathway. To produce the expected intrinsic antineoplastic effect, APL-derived phosphotriesters need to be processed into the bioactive parent APLs. The hydrolysis of the prodrugs may be under the control of a chemical stimulus, e.g., a pH decrease as observed during the maturation of endosomes, or of degradation enzymes that massively enter the endosome compartment when continuing to lysosomes. To get some information on the transformation of pro-APLs into APLs, we monitored the hydrolysis of these compounds over time, at pH 7.4 and 4.5, conditions that mimick the extracellular milieu and the environment of the late endosome, respectively. This monitoring was realized using ^31P-NMR spectroscopy, according to a previously reported method (Pierrat et al., [2013b]). Whatever the compound investigated, only one single ^31P resonance did appear during the course of the experiments, corresponding to that of the parent APL. This confirmed that hydrolysis of the pro-APLs selectively occurred at the acetal center. […] As a general trend, hydrolysis of the pro-APLs was […] under neutral conditions (i.e., pH 7.4) than under acidic ones (i.e., pH 4.5). […] Besides, substitution of one hydrogen atom with a methyl group on the acetal bridge accelerated the rate of hydrolysis of the prodrugs. […] Indeed, in biological media, the enzyme-mediated hydrolysis of such compounds can proceed far quicker than “simple” chemical hydrolysis under pH control (Pierrat et al., [2012]). […]

[12] = test system: sheep RBC; details: sheep RBC, 37°C, ref Gaillard et al., 2019, cited from earlier work
[13] = test system: 16HBE cells; set-up: method as in Gaillard et al., 2019; details: 24 h at 37°C, MTT assay, ref Gaillard et al., 2019; cited from earlier work
[14] = set-up: method as in Gaillard et al., 2019; details: lipoplexes with pCMV-Gluc, N/P 3, 1 molar equivalent of DOPE; ref Gaillard et al., 2019; cited from earlier work
[15] = set-up: method as in Gaillard et al., 2019; details: pyrene fluorescence; ref Gaillard et al., 2019; cited from earlier work
[16] = test system: A549 cells; set-up: method as in Gaillard et al., 2019; details: A549, 24 h at 37°C, MTT assay; ref Gaillard et al., 2019; cited from earlier work
[17] = test system: H292 cells; set-up: method as in Gaillard et al., 2019; details: H292, 24 h at 37°C, MTT assay; ref Gaillard et al., 2019; cited from earlier work
[18] = set-up: method as in Gaillard et al., 2019; details: ref Gaillard et al., 2019, cited from earlier work
[19] = Homo sapiens, NCI-H292, H292, 24 h at 37°C

| Compound | IC50 ([2]; Homo sapiens) | IC50 ([4]; Homo sapiens) | HA200 (hemolytic activity at 200 μM) ([6]; 1 h) | CMC (APLs) / CAC (pro-APLs) [7] | IC50 [8, 19] | HA200 (hemolytic activity at 200 μM) ([12]; 1 h) | HA200 (hemolytic activity at 200 μM) ([12]; 24 h) | IC50 [13] | Particle size of lipoplexes [14] | CMC (APLs) / CAC (pro-APLs) [15] | IC50 [16] | IC50 [17] | H120 (hydrolysis rate after a 120-h incubation period) ([18]; pH 4.5) | H120 (hydrolysis rate after a 120-h incubation period) ([18]; pH 7.4) | further results |
| --- | --- | --- | --- | --- | --- | --- | --- | --- | --- | --- | --- | --- | --- | --- | --- |
| CCCCCCCCCCCCCCCCOP(=O)([O-])OCC[N+](C)(C)C [Miltefosine, reference compound] | 77 ± 15 µM | 73 ± 8 µM | 90.8 ± 1.5% | 11.2 ± 2.3 µM | 70 ± 9 µM | – | – | – | – | – | – | – | – | – | HC50 ([1]; depending on the hematocrit, ref Alonso and Alonso, 2016): 34 to 51 µM; HC50 ([1]; ref Petit et al., 2019): 41 µM; CMC ([3]; ref Rakotomanga et al., 2004): 2.5 to 3.0 µM; CMC [5]: 12 µM; HC50 (concentration provoking 50% hemolysis) ([6]; 1 h): 43 µM; CMC (APLs) / CAC (pro-APLs) ([7]; listed as miltefosine): 11.2 µM |
| 3-((((((Dodecyloxy)carbonyl)oxy)ethoxy)(hexadecyloxy)phosphoryl)oxy)-N,N,N-trimethylpropan-1-aminium chloride [M C^′12] | – | – | – | 2.0 ± 0.7 µM | – | – | – | – | – | – | – | – | – | – | IC50 [2]: 48 ± 15 µM; Particle size of lipoplexes [9]: 91 ± 3 nm; IC50 [4]: 66 ± 27 µM; Transfection rate relative to MC12 ([10]; A549, pCMV-Gluc lipoplexes, 10% serum, 24 h): ca. 2 fold; H120 (hydrolysis rate after a 120-h incubation period) ([11]; pH 4.5): 13%; H120 (hydrolysis rate after a 120-h incubation period) ([11]; pH 7.4): 14%; IC50 ([8]; H292, 24 h at 37°C): 146 ± 37 µM |
| CCCCCCCCCCCCCCCCOP(=O)(OCC[N+](C)(C)C)OCOC(=O)CCCCCCCCCCC.[Cl-] (stereo not shown) [ME12, 2-((((Dodecanoyloxy)methoxy)(hexadecyloxy)phosphoryl)oxy)-N,N,N-trimethylethan-1-aminium chloride] | 39 ± 7 µM | 69 ± 26 µM | 18.0 ± 1.2% | 4.3 ± 2.5 µM | 52 ± 28 µM | – | – | – | – | – | – | – | – | – | Particle size of lipoplexes [9]: 178 ± 8 nm; Serum content up to which significant transgene expression was mediated ([10]; A549, N/P 3, 1 eq. DOPE, DNA dose 0.2 μg/well): up to 50 % serum; Serum content up to which transfection activity extended ([10]; A549, N/P 3, 1 eq. DOPE, DNA dose 0.4 μg/well): up to 75 % serum; H120 (hydrolysis rate after a 120-h incubation period) ([11]; pH 4.5): 3%; H120 (hydrolysis rate after a 120-h incubation period) ([11]; pH 7.4): 20%; HA200 (hemolytic activity at 200 μM) ([6]; 24 h): 103.2 ± 3.6% |
| CCCCCCCC/C=C\CCCCCCCCCCCCOP(=O)(OCCC[N+](C)(C)C)OCOC(=O)OCCCCCCCC/C=C\CCCCCCCC (stereo not shown) [EC18:1] | – | – | – | – | – | < 1% | 20.9 ± 2.5% | 238 ± 58 µM | 611 ± 12 nm and 611 nm | 0.8 ± 0.4 µM | 326 ± 36 µM | 154 ± 40 µM | 0% | 10% | – |
| CCCCCCCC/C=C\CCCCCCCCCCCCOP(=O)(OCCC[N+](C)(C)C)OCOC(=O)OCCCCCCCCCCCC (stereo not shown) [EC12] | – | – | – | – | – | < 1% | 9.6 ± 2.3% | 252 ± 112 µM | 117 ± 15 nm | 1.2 ± 0.2 µM | 161 ± 21 µM | 167 ± 56 µM | 1% | 8% | – |
| CCCCCCCC/C=C\CCCCCCCCCCCCOP(=O)(OCCC[N+](C)(C)C)OC(C)OC(=O)OCCCCCCCCCCCC (stereo not shown) [E C^′12] | – | – | – | – | – | < 1% | 7.3 ± 0.8% | 257 ± 81 µM | 92 ± 10 nm | 0.9 ± 0.2 µM | 179 ± 63 µM | 161 ± 25 µM | 5% | 6% | – |
| CCCCCCCC/C=C\CCCCCCCCCCCCOP(=O)(OCCCCCCCCCCCC)OCCC[N+](C)(C)C (stereo not shown) [Compound E12] | – | – | – | – | – | 1.9 ± 0.7% | 12.0 ± 1.9% | 225 ± 31 µM | 194 ± 28 nm and 194 nm | 0.7 ± 0.3 µM | 81 ± 7 µM | 124 ± 11 µM | 0% | 0% | Hydrolytic stability after extended incubation ([18]; pH 7.4 and pH 4.5, 31 days): fully stable |
| CCCCCCCCCCCCCCCCCCOP(=O)([O-])OC1CC[N+](C)(C)CC1 [Perifosine, reference compound] | 127 ± 39 µM | 116 ± 33 µM | 85.1 ± 4.0% | 4.4 ± 1.7 µM | 77 ± 3 µM | – | – | – | – | – | – | – | – | – | Hemolysis ([1]; 24-h exposure to 5.4 μM, ref Egler and Lang, 2017): ca. 30%; CMC ([3]; ref Mravljak et al., 2005): 2.5 µM; HC50 (concentration provoking 50% hemolysis) ([6]; 1 h): 46 µM; CMC (APLs) / CAC (pro-APLs) ([7]; listed as perifosine): 4.4 µM |
